Results as given in patent US20060263453A1, “Methods and compositions for modulating glutamate dehydrogenase” (priority 2004, published 2006).

What was measured:
[1] = test system: GDH from Tetrahymena thermophilia (tGDH); experiment: kinetic analysis of Tetrahymena GDH; type: biochemical; conditions: FIG. 4
Method: First, aliquots of GDH were extensively dialyzed against 0.1M sodium phosphate buffer, pH 7.0, which contained 1 mM ethylenediaminetetraacetic acid (EDTA). The enzyme concentrations were adjusted to 1 mg/ml and the amount of enzyme added to the reaction mixture, for kinetic analysis, was adjusted to yield optimal steady state velocity measurements. All solutions were made immediately prior to use. Enzyme assays were performed by monitoring reduced coenzyme absorbance at 340 nm using a Shimadzu UV-1601 spectrophotometer. The reductive amination reactions were performed in 3 mL volumes at pH 7.0 in the presence of 0.1 mM nicotinamide adenine dinucleotide (NADH), 50 mM NH4Cl, and 5 mM 2-oxoglutarate. The rate of NADH oxidation was calculated using an extinction coefficient of 6.22 mM^−1 cm^−1.
To this end, EGCG was tested against five different HI/HA mutant forms of GDH, namely, R265K, R269C, E296A, S448P, and H454Y. In addition, EGCG was tested against human wild type GDH (“WT”), GDH from Tetrahymena thermophilia (“tGDH”) that, like the HI/HA mutant GDH enzymes, is not regulated by GTP, and a human GDH that was missing a certain 48 residue ‘antenna-like’ feature protruding from the top of each of its six subunits that is necessary for ADP, GTP, and Palmitoyl CoA regulation. […]

rat islets [2] = experiment: BCH-stimulated insulin secretion in perifused islets (120 minute run-down, BCH ramp); type: cell-based, Wistar rat
Method: In this Example, adult male Wistar rat islets were isolated by collagenase digestion and initially cultured in glucose-free RPMI […] medium (Sigma Aldrich Chemical Company, St. Louis, Mo.). The culture medium was supplemented with 10% fetal bovine serum, 2 mM glutamine, 100 units/mL penicillin, and 50 μg/mL streptomycin.
The islets were then perifused in the absence of glucose and in the presence of 2 mM glutamine (and the different concentrations of EGCG or EGC shown in FIG. 5) for run-down periods of 120 minutes prior to stimulation with a BCH ramp (0 to 10 mM, 0.2 mM/minute). Specifically, 100 cultured rat islets were loaded onto nylon filters in a small chamber and perifused in a Krebs-Ringer bicarbonate buffer (115 mmol/liter NaCl, 24 mmol/liter NaHCO3, 5 mmol/liter KCl, 1 mmol/liter MgCl2, 2.5 mmol/liter CaCl2, in 10 mM HEPES, pH 7.4) with 0.25% bovine serum albumin at a flow rate of 2 mL/minute. Perifusate solutions were gassed with 95% O2/5% CO2 and maintained at 37° C. Finally, the islets were exposed to 30 mM KCl. Samples were collected every minute to measure insulin levels by radioimmunoassay.

rat islets [3] = experiment: glucose stimulated insulin secretion (GSIS), short run-down (50 minutes), glucose ramp; type: cell-based; conditions: 20 μM, FIGS. 8A and 8B
Method: In this Example, the effect of EGCG on glucose stimulated insulin secretion (GSIS) was examined. Isolated rat islets were cultured with 20 mM glucose (FIG. 8A) and 10 mM glucose (FIG. 8B) for 3 days, then perifused in the absence of glucose for 50 minutes and in the presence of 0 μM EGCG; 20 μM EGCG; or 20 μM EGC. Next, the islets were stimulated by a glucose ramp (0 to 25 mM, 0.5 mM/minute). Finally, the islets were exposed to 30 mM KCl. Insulin levels were measured every minute by radioimmunoassay. The results shown in FIG. 8A are presented as means±S.E. for 100 islets from 3 separate experiments (and means±S.E. for 100 islets from 1 experiment for FIG. 8B).

**Q.** With `O=C(O[C@@H]1Cc2c(O)cc(O)cc2O[C@@H]1c1cc(O)c(O)c(O)c1)c1cc(O)c(O)c(O)c1` [EGCG, (2R,3R)-2-(3,4,5-Trihydroxyphenyl)-3,4-dihydro-1 (2H)-benzopyran-3,5,7-triol 3-(3,4,5-trihydroxybenzoate)] as the molecule, how does the “inhibition of tGDH” value [1] read?
**A.** inhibited

**Q.** What about the “intrinsic ability of the cells to secrete insulin (depolarization by KCl)” value (rat islets [2]; 30 mM KCl) of the same molecule?
**A.** did not affect

**Q.** What about the “BCH stimulation of insulin secretion blocked” value (rat islets [2]; FIG. 5) of the same molecule?
**A.** blocked

**Q.** And the “effect on GSIS” value (rat islets [3])?
**A.** neither EGC nor EGCG affected
